Measured values published in patent US5545617A, “Therapeutic regulation of abnormal conjunctival goblet cell mucous secretion” (The Schepens Eye Research Institute, Inc., priority 1993, dated 1996).
“And” between values parts separate entries of the source, which are not always exact repeats. Identical values can stand only once. Counter-ions that a name gives are not always drawn. Like-named read-outs stand apart in the source and are kept apart here.

Assays:
[1] = system: conjunctival goblet cell mucous secretion; settings: cited from earlier work
[2] = system: conjunctival goblet cell mucous secretion; settings: 100 μg topical, rabbits, cited from earlier work
[3] = system: conjunctival goblet cell mucous secretion; test: in vivo rat model: topical agents, density of mucin-containing goblet cells (alcian blue/PAS);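 for all read-outs here: rat eyes dosed topically with 20 µl drops every 20 min over 1 hr, non-secreted goblet cells counted in three 0.16 mm^2 conjunctival areas, lower density means more mucous secretion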; settings: for (Stimulus) Optimal Effective Conc. (M): Table 1; for (Stimulus) Max % Increase in Secretion: Table 1, at optimal effective conc.; for conjunctival goblet cell mucous secretion (in words): topical application, summary of Example II; for concentration giving the maximum effect on goblet cell density: topical; for goblet cell mucous secretion (in words): summary of Example I
Experimental: Thus, the in vivo rat model can be used to study conjunctival goblet cell mucous secretion. With this model, the ocular surface of anesthetized rats is treated topically or subconjunctivally. After treatment, the animals are euthanized, the ocular surface is fixed, conjunctival tissue is removed and mucus in the secretory granules of goblet cells stained with alcian blue and periodic acid-Schiff's (PAS) reagents to indicate mucin-containing goblet cells. The number of mucin-containing goblet cells is then determined. A decrease in the number of mucin-containing goblet cells indicates an increase in goblet cell secretion.
To determine the effect of topically applied solutions, experimental solutions (20 μl drops) were placed on each eye from the temporal region every 20 min for 1 hr. The solutions were carefully removed with a cotton-tipped applicator from the nasal region of the eyes before placement of the next drop or before euthanization. […] Because conjunctival goblet cell density is not uniform throughout the conjunctiva, care was taken to use a specific area for sampling. […] Conjunctival buttons were then dissected and tissue placed epithelial side up on gelatin-coated, glass microscope slides. […] Mucin contained in the secretory granules of the goblet cells was stained with alcian blue and periodic acid-Schiff (PAS) stain (79). The number of mucin-containing goblet cells was counted in a masked fashion using light microscopy (standard Zeiss microscope) at 160× magnification. The density of mucin-containing goblet cells was determined by averaging counts of goblet cells in three 0.16 mm^2 areas in each button. A decrease in mucin containing goblet cell number per unit area (density) indicated an increase in mucous secretion.
The mucin-containing goblet cells stained purple and fuchsia with alcian blue and PAS, respectively. By focusing through the tissue, cells with moderate to intense staining and sharp, defined cell borders were considered non-secreted and were counted. Cells with very light stain, absence of color, indistinguishable color from background staining and fuzzy borders were considered cells that had secreted mucus and were not counted. Following these criteria, the non-secreted mucin-containing goblet cells in the three 0.16 mm^2 areas were counted, averaged and expressed as mucin-containing goblet cell density. Therefore, a decrease in mucin-containing goblet cell density indicated mucous secretion.
To determine the effect of topically applied compounds, an experimental buffer containing the test compound (20 μl drops) was placed on one eye from the temporal region every 20 min for 1 hr unless otherwise indicated. […] The solutions were removed from the nasal region of the eye with a cotton-tipped applicator. After the 1 hr protocol, animals were euthanized with sodium pentobarbital.

[4] = system: conjunctival goblet cells; test: light microscopy of H and E stained conjunctival sections after topical lidocaine; assay type: in vivo, rat; settings: 1% topical
Experimental: The globe of the eye was excised. The posterior half of the globe was removed, followed by removal of the lens and iris. The remaining tissue (the ocular surface) including the cornea, the limbus, and the bulbar conjunctiva was frozen in O. C. T. Compound (Miles Inc., Elkart, Ind.).
Tissue sections (20 μm) were prepared from the ocular surface and stained with hematoxylin and eosin (H and E). Sections were examined using an Olympus Microscope (BH-2; Micro-Tech Optical, Inc., Hudson, Mass.).

[5] = system: conjunctival goblet cell mucous secretion; test: local anesthetics on sensory stimulation (corneal debridement) of goblet cell mucous secretion; assay type: in vivo, rat
Experimental: Rats were anesthetized with sodium pentobarbital (65 mg/kg).
Fifteen min after application of local anesthetic, the central cornea of one eye was wounded by debridement (2-3 mm diameter area), the other was sham-debrided and 5 min later the animal was euthanized with intraperitoneal sodium pentobarbital ([…]).

[6] = system: conjunctival goblet cell density; settings: long term exposure of rabbit ocular surface; cited from earlier work
[7] = 10^-8 M topical, 1 hr, inferior conjunctiva
[8] = 10^-4 M topical, 1 hr, inferior conjunctiva
[9] = 10^-8 M topical, 1 hr, Example II

For `Nc1ncnc2c1nc(Br)n2[C@@H]1O[C@@H]2COP(=O)(O)O[C@H]2[C@H]1O` [8-Br-cAMP], the mucin discharge [1] is listed as “unaffected”.
In the case of `Nc1nc2c(nc(Br)n2[C@@H]2O[C@@H]3COP(=O)(O)O[C@H]3[C@H]2O)c(=O)[nH]1` [8-Br-cGMP], the mucin discharge [1] is listed as 2-3 fold.
For `CCCC[C@H](C)C(O)C#CC1CCC(=O)C1C/C=C\CCCC(=O)OC` (stereo partly drawn) [FCE20700, 11-deoxy-13,14-didehydro-16(S)-methylester methyl PGE2], the “goblet cells with mucous secretion” value ([2]; 0.5 hr) is listed as 86.9% and the “goblet cells with mucous secretion” value ([2]; 2.5 hr) is listed as 90.3%.
For `C[N+](C)(C)CCOC(N)=O.[Cl-]` [carbachol, carbamyl choline chloride], the “effect on mucin-containing goblet cell density” value ([3]; 10^-5 -10^-4 M topical) was “not at 10^-5 -10^-4 M”, the “decrease in mucin-containing goblet cell density from contralateral control eye” value ([3]; 10^-6 M topical, 1 hr) was 40% and the “effect on mucin-containing goblet cell density” value ([3]; 10^-7 M topical) was “decreased mucin-containing goblet cell density”. For the same compound, the “(Stimulus) Optimal Effective Conc. (M)” value [3] was 10^-6 M, the “(Stimulus) Max % Increase in Secretion” value [3] was 41% and the “conjunctival goblet cell mucous secretion (in words)” value [3] was “stimulate conjunctival goblet cell mucous secretion”. For the same compound, the “concentration giving the maximum effect on goblet cell density” value (“concentration giving the maximum effect” below) ([3]; 1 hr, Example II) was 10^-6 M.
In the case of `CCCCC(C)(C)[C@H](O)/C=C/[C@H]1[C@H](O)CC(=O)[C@@H]1C/C=C\CCCC(=O)O` [dmPGE2, 16,16-dimethyl-prostaglandin E2], the “mucin-containing goblet cell density, inferior bulbar conjunctiva” value ([3]; 1 μM topical, 1 hr, vs control) is reported as “did not differ significantly from control values”, the “mucin-containing goblet cell density, inferior bulbar conjunctiva” value ([3]; 10 μM topical, 1 hr, vs control) is reported as “did not differ significantly from control values” and the “decrease in mucin-containing goblet cell density from buffer-treated eyes” value ([3]; 100 μM topical, 1 hr, inferior conjunctiva) is reported as 30% and 39%. The “mucin-containing goblet cell density, inferior bulbar conjunctiva” value ([3]; 100 μM topical, 1 hr, mean±SE) was 36±12 goblet cells/0.16 mm^2, the “goblet cell mucous secretion (in words)” value ([3]; 100 μM topical) was “increased goblet cell mucous secretion from inferior but not superior conjunctiva” and the “mucin-containing goblet cell density, superior bulbar conjunctiva” value ([3]; 100 μM, 10 μM, 1 μM topical, 1 hr, vs contralateral control or buffer-treated eyes) was “Neither 100 μM, 10 μM, nor 1 μM dmPGE2 significantly altered the density”. The “electron microscopy of goblet cells, inferior bulbar conjunctiva” value ([3]; 600 μM (FIG. 5B)) was “the goblet cells secreted mucous onto the ocular surface”.
With `NCCc1ccc(O)c(O)c1` [dopamine, 3-hydroxytyramine] the “decrease in mucin-containing goblet cell density from contralateral control” value [3, 7] was 64%, the “(Stimulus) Optimal Effective Conc. (M)” value [3] was 10^-8 M and the “(Stimulus) Max % Increase in Secretion” value [3] was 64%. The “conjunctival goblet cell mucous secretion (in words)” value [3] was “stimulate conjunctival goblet cell mucous secretion” and the “concentration giving the maximum effect” value ([3]; 1 hr, Example II) was 10^-8 M.
For `CNC[C@H](O)c1ccc(O)c(O)c1` [epinephrine, (-)-epinephrine], the “electron microscopy of goblet cells, inferior bulbar conjunctiva” value ([3]; 1 μM (FIG. 5D)) was “some of the goblet cells secreted mucus onto the ocular surface in an all or none fashion”, the “goblet cell mucous secretion (in words)” value ([3]; 100 μM topical) was “stimulated mucous secretion” and the “decrease in mucin-containing goblet cell density from contralateral control” value [3, 8] was 46%. For the same compound, the “mucin-containing goblet cell density, inferior conjunctiva” value ([3]; 10^-4 M topical, 1 hr, Example I, P<0.04 vs buffer) was 159±35 cells, the “mucin-containing goblet cell density, inferior conjunctiva” value ([3]; 10^-6 M topical, 1 hr, Example I, unchanged vs buffer) was 200±33 cells and the “mucin-containing goblet cell density, inferior conjunctiva” value ([3]; 10^-8 M topical, 1 hr, Example I, unchanged vs buffer) was 180±55 cells. The “(Stimulus) Optimal Effective Conc. (M)” value [3] was 10^-2 M, the “(Stimulus) Max % Increase in Secretion” value [3] was 52% and the “conjunctival goblet cell mucous secretion (in words)” value [3] was “stimulate conjunctival goblet cell mucous secretion”. The “concentration giving the maximum effect” value ([3]; 1 hr, Example II) was 10^-4 M.
With `CCN(CC)CC(=O)Nc1c(C)cccc1C` [lidocaine, lidocaine hydrochloride] the “goblet cells detected in H- and E-stained sections” value ([4]; 5 min (FIG. 6B)) was “some goblet cells”, the “goblet cells detected in H- and E-stained sections” value ([4]; 10 min (FIG. 6C)) was “numerous goblet cells” and the “effect on sensory stimulation of mucous secretion” value (“effect on sensory stimulation” for short) ([5]; 1% sub-conjunctival injection alone) was “inhibited sensory stimulation of mucous secretion”. For the same compound, the “mucin-containing goblet cells in treated, wounded eyes” value ([5]; 1% sub-conjunctival injection prior to the wound) was 100±28 cells, the “mucin-containing goblet cells in treated, contralateral sham-wounded eyes” value ([5]; 1% sub-conjunctival injection, sham-wounded) was 98±24 cells and the “effect on sensory stimulation” value ([5]; 1% topical alone) was “inhibited sensory stimulation of mucous secretion”. For the same compound, the “effect on sensory stimulation” value ([5]; 1% topical and sub-conjunctival injection) was “inhibited the sensory stimulation of goblet cell mucous secretion”, the “mucin-containing goblet cells in treated, contralateral sham-wounded eyes” value ([5]; 1% topical and sub-conjunctival injection, sham-wounded) was 110±25 cells and the “mucin-containing goblet cells in treated, wounded eyes” value ([5]; 1% topical and sub-conjunctival injection, then wounded) was 132±21 cells. The “mucin-containing goblet cells in treated, wounded eyes” value ([5]; 1% topical prior to the wound) was 84±7 cells and the “mucin-containing goblet cells in treated, sham-wounded eyes” value ([5]; 1% topical, sham-wounded) was 78±5 cells.
In the case of `CNC[C@H](O)c1cccc(O)c1` [phenylephrine, L-phenylephrine hydrochloride], the “conjunctival goblet cell density” value [6] is listed as “does not significantly affect conjunctival goblet cell density”, the “decrease in mucin-containing goblet cell density from contralateral control” value [3, 8] is listed as 40% and the “(Stimulus) Optimal Effective Conc. (M)” value [3] is listed as 10^-4 M. The “(Stimulus) Max % Increase in Secretion” value [3] was 40%, the “conjunctival goblet cell mucous secretion (in words)” value [3] was “stimulate conjunctival goblet cell mucous secretion” and the “concentration giving the maximum effect” value ([3]; 1 hr, Example II) was 10^-4 M.
In the case of `CCCOc1ccc(C(=O)OCCN(CC)CC)cc1N` [proparacaine, Proparacaine hydrochloride], the “inhibition of sensory stimulation of mucous secretion” value ([5]; 0.5% topical, 15 min before corneal debridement) is reported as “unable to inhibit sensory stimulation of mucous secretion”.
For `NCCc1c[nH]c2ccc(O)cc12` [serotonin, 5-hydroxytryptamine], the “decrease in mucin-containing goblet cell density from contralateral control” value [3, 7] was 54%, the “mucin-containing goblet cell density, inferior conjunctiva” value [3, 9] was 148±27 cells and the “(Stimulus) Optimal Effective Conc. (M)” value [3] was 10^-8 M. For the same compound, the “(Stimulus) Max % Increase in Secretion” value [3] was 54%, the “conjunctival goblet cell mucous secretion (in words)” value [3] was “stimulate conjunctival goblet cell mucous secretion” and the “concentration giving the maximum effect” value ([3]; 1 hr, Example II) was 10^-8 M.
For Substance P, the “decrease in mucin-containing goblet cell density from contralateral control eye” value ([3]; 10^-6 M topical, 1 hr) was 58%, the “mucin-containing goblet cell density” value ([3]; 10^-6 M topical, 1 hr, Example II) was 77±18 cells and the “effect on mucin-containing goblet cell density” value ([3]; 10^-10 or 10^-8 M topical) was “not at 10^-10 or 10^-8 M”. For the same compound, the “(Stimulus) Optimal Effective Conc. (M)” value [3] was 10^-6 M, the “(Stimulus) Max % Increase in Secretion” value [3] was 42% and the “conjunctival goblet cell mucous secretion (in words)” value [3] was “stimulate conjunctival goblet cell mucous secretion”.
In the case of Vasoactive Intestinal Peptide [VIP], the “decrease in mucin-containing goblet cell density from contralateral control” value [3, 7] is reported as 39%, the “mucin-containing goblet cell density, inferior conjunctiva” value [3, 9] is reported as 150±23 cells and the “(Stimulus) Optimal Effective Conc. (M)” value [3] is reported as 10^-8 M. The “(Stimulus) Max % Increase in Secretion” value [3] was 39%, the “conjunctival goblet cell mucous secretion (in words)” value [3] was “stimulate conjunctival goblet cell mucous secretion” and the “concentration giving the maximum effect” value ([3]; 1 hr, Example II) was 10^-8 M.
